Test results as given in patent US20220033435A1, “Cyclic Di-Nucleotide Compounds as STING Agonists” (Merck Sharp & Dohme Corp., priority 2018, published 2022).

Legend:
[1] = target: T1, full-length HAQ STING (Homo sapiens, UniProt Q86WV6, G230A/H232R/R293Q/R71H); assay: 3H-cGAMP filtration binding assay (HAQ STING); settings: competition with tritiated cGAMP ligand, HAQ STING membrane
T1 construct: Full-Length HAQ STING [STING(1-379)R71H, G230A, H232R,; made in house; host or cells: Trichoplusia ni (Hi-Five) insect cells infected with baculovirus; washed membranes were used
From the text: The ability of compounds to bind STING is quantified by the ability to compete with tritiated cGAMP ligand for human STING receptor membrane using a radioactive filter-binding assay. The binding assay employs STING receptor obtained from Hi-Five cell membranes overexpressing full-length HAQ STING prepared in-house and tritiated cGAMP ligand also purified in-house.
The ability of compounds to bind STING is quantified by their ability to compete with tritiated cGAMP ligand for human STING receptor membrane using a radioactive filter-binding assay. The binding assay employs STING receptor obtained from Trichoplusia ni cell membranes (T.ni; Expression Systems, cat #94-002F, www.expressionsystems.com) overexpressing full-length HAQ STING and tritiated cGAMP ligand.
The basic HAQ STING filtration assay protocol is as follows:
Compound and membrane then preincubated for 60 min at RT to allow compound binding to equilibrate. Following equilibration, 8 nM of [^3H]c-GAMP ligand was prepared by diluting into assay buffer, and 50 uL of this working stock was then manually added to each well of the assay plate. […] The filter plates were then dried at 55° C. for 30 min using a pressurized oven before 30 uL of ULTIMA GOLD F scintillate was added to each well. Tritium levels for each reaction well were then measured using a PerkinElmer TopCount plate reader.
After normalization to controls, the percent activity for each compound concentration was calculated by measuring the amount of remaining radioactivity. The plot of percent activity versus the log of compound concentration was fit with a 4-parameter dose response equation to calculate EC50 values.

[2] = tested on: THP1 cells; assay: IFN-β secretion in THP1 cell culture (5 h); assay type: cell-based, human; settings: cGAMP at 30 uM set at 100%
Experimental: IFN-β secretion in THP1 cell culture (5 h)
The ability of compounds to stimulate the secretion of interferon-beta from THP1 cells was measured using a human IFN-0 AlphaLISA kit (Perkin Elmer, Cat. No. AL265F). The basic protocol is as follows:
A Labcyte Echo 550 acoustic dispenser was used to transfer 120 nL of compound dissolved in DMSO into the wells of an empty, sterile 384-well microplate, (Corning, Cat. No. 3712). THP1 cells (American Type Culture Collection, Cat. No. TIB202) previously frozen in Recovery Medium (Life Technologies, Cat. No. 12648-010) were thawed and immediately diluted 10-fold into 37° C. assay medium (RPMI 1640+L-Glutamine & phenol red, Life Technologies, Cat. No. 11875-085; 0.5% heat inactivated fetal bovine serum, Sigma Aldrich, Cat. No. F4135; 1 mM Sodium Pyruvate, Life Technologies, Cat. No. 11360-070; 1× non-essential amino acids; Life Technologies, Cat. No. 11140-050). The cell viability and count was ascertained using a Beckman Coulter V-Cell XR cell counter. The cell suspension was centrifuged at 200×g for 5 min at RT. Cells were resuspended to a density of 0.8×10^6/mL in 37° C. assay medium. Subsequent liquid transfers were performed using either a Matrix electronic multichannel pipette or an Agilent Bravo Automated Liquid Handling Platform. The assay was started by dispensing 40 μL of the previously prepared cell suspension into the wells of the plate containing compounds. After 5 h incubation at 37° C., 5% CO2 in a humidified atmosphere, the plate of cells and compounds was centrifuged at 200×g for 5 min at RT. From each well, 5 μL of supernatant was transferred into corresponding wells of a white 384-well plate (Perkin Elmer, Cat. No. 6005620). To these supernatant-containing wells was added 10 μL of 5× Anti-Analyte Acceptor beads (50 μg/mL of AlphaLISA HiBlock Buffer) and incubated for 30 min at RT while shaking on an orbital plate shaker. To each well was added 10 μL of 5× Biotinylated Antibody Anti-analyte (5 nM in AlphaLISA HiBlock Buffer) and incubated on an orbital plate shaker for 60 min at RT or overnight at 4° C. To each well was added 25 μL of 2×SA-Donor beads (80 μg/mL in AlphaLISA HiBlock Buffer) and incubated for 30-45 min at RT in the dark while shaking on an orbital plate shaker. The plate was then read on a Perkin Elmer Envision (λex=680 nm, […]). The percent effect of the AlphaLISA signal at each compound concentration was calculated based on 30 uM cGAMP positive controls and 0.3% DMSO negative controls. The plot of percent effect versus the log of compound concentration was fit with a 4-parameter concentration response equation to calculate EC50 values. The test compounds were tested at concentrations 30000, 10000, 3333, 1111, 370.4, 123.4, 41.2, 13.7, 4.6, and 1.5 nM with 0.3% residual DMSO. The control compound, cGAMP was tested at concentrations 100000, 33333, 11111, 3704, 1235, 412, 137, 46, and 15 nM with 0.3% residual DMSO.
Compounds of the disclosure were evaluated for IFN-β secretion in THP1 cell culture as described above. The following table tabulates the biological data for these compounds as percent activation relative to 2′3′-cGAMP at the 30 μM concentration.

T1 sequence (Q86WV6 with tags, fused parts or gaps R71H/G230A/H232R/R293Q): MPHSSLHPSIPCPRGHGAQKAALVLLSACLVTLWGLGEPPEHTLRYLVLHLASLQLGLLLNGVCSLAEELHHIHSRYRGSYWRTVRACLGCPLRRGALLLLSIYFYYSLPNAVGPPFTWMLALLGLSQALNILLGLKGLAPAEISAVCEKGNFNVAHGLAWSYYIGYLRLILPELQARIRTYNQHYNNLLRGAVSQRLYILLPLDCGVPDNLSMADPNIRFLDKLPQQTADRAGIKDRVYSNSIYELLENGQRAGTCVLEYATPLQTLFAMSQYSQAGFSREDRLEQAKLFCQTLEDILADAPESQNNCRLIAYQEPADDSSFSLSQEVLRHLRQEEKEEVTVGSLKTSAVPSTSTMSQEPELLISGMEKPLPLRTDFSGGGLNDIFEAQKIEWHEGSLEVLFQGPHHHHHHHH

Row | SMILES | EC50 [1] [nM] | % Effect at 30 μM relative to 2′3′-cGAMP [2] [%]
1 | Nc1ncnc2c1ncn2[C@@H]1O[C@@H]2COP(=O)(S)O[C@@H]3[C@H](O)[C@@H](COP(=O)(S)O[C@@H]2[C@H]1O)O[C@H]3n1ccc(=O)n2ccnc12 (single isomer, unassigned) [Example 5] | 4410 | 62
2 | Nc1nc2c(ncn2[C@@H]2O[C@@H]3COP(=O)(S)O[C@@H]4C[C@H](n5cnc6c(N)ncnc65)O[C@@H]4COP(=O)(S)O[C@@H]2[C@@H]3F)c(=O)[nH]1 (single isomer, unassigned) [Example 1] |  | 112
3 | Nc1nc2c(ncn2[C@@H]2O[C@@H]3COP(=O)(S)O[C@@H]4[C@@H](O)[C@H](n5cnc6c(N)ncnc65)O[C@@H]4COP(=O)(S)O[C@@H]2C3)c(=O)[nH]1 (stereo partly drawn) [Example 3, 2-amino-9-[(5S,7R,8R,12aR,14R,15R,15aR)-14-(6-amino-9H-purin-9-yl)-15-hydroxy-2,10-dioxido-2,10-disulfanyloctahydro-12H-5,8-methanofuro[3,2-l][1,3,6,9,11,2,10]penta-oxadiphosphacyclotetradecin-7-yl]-1,9-dihydro-6H-purin-6-one] |  | 63
4 | Nc1nc2c(ncn2[C@@H]2O[C@@H]3COP(=O)(S)O[C@@H]4C[C@H](n5cnc6c(N)ncnc65)O[C@@H]4COP(=O)(S)O[C@@H]2[C@@H]3F)c(=O)[nH]1 (single isomer, unassigned) [Example 2] |  | 114
5 | Nc1ncnc2c1ncn2[C@@H]1O[C@@H]2COP(=O)(S)O[C@@H]3[C@H](O)[C@@H](COP(=O)(S)O[C@@H]2[C@H]1O)O[C@H]3n1ccc(=O)n2ccnc12 (single isomer, unassigned) [Example 4] | 3690 | 30

Now from value to compound, other results behind:

Row | EC50 [1] [nM] | SMILES | % Effect at 30 μM relative to 2′3′-cGAMP [2] [%]
6 | 2.35 | Nc1nc2c(ncn2[C@@H]2O[C@@H]3COP(=O)(S)O[C@@H]4[C@H](F)[C@H](n5cnc6c(N)ncnc65)O[C@@H]4COP(=O)(S)O[C@@H]2C3)c(=O)[nH]1 (single isomer, unassigned) [Example 7] | 118
7 | 48.6 | Nc1nc2c(ncn2[C@@H]2O[C@@H]3COP(=O)(S)O[C@@H]4[C@H](F)[C@H](n5cnc6c(N)ncnc65)O[C@@H]4COP(=O)(S)O[C@@H]2C3)c(=O)[nH]1 (single isomer, unassigned) [Example 6] | 61
